Laboratory results from patent US4307106A, “Aminothiazoles” (Pfizer Inc., priority 1979, dated 1981).
Counter-ions that a name gives are not always drawn.

system: murine thymus cells; test: in vitro stimulation of lymphocyte proliferation of murine thymus cells cultured in the presence of Concanavalin A (lymphocyte stimulation assay, LSA); assay type: cell-based, mouse (male C57B1/6); conditions: Con A-stimulated thymus cells, 48 h at 37° C., highest 3H-thymidine cpm of eight concentrations 0.02 to 50 μg/ml, hydrohalide salts
Excerpt: The immune regulant activity of the compounds of the present invention may be determined by such pharmacological tests as the stimulation in vitro of lymphocyte proliferation of murine thymus cells cultured in the presence of Concanavalin A (Con A), employing the general evaluation procedure of V. J. Merluzzi et. al., see Journal of Clinical and Experimental Immunology, Volume 22, page 486 (1975).
The immune regulant activity of the aminothiazoles described in Examples 2, 3, 4, 6, 7, 8, 10 and 11 was evaluated by determining their ability to stimulate, in vitro the lymphocyte proliferation of murine thymus cells cultured in the presence of Concanavalin A (Con A) by employing the procedure of V. J. Merluzzi et. al., as essentially described in the Journal of Clinical and Experimental Immunology, Vol. 22, p. 486 (1975). The cells were derived from male C57B1/6 mice of from 6-8 weeks age, purchased from the Jackson Laboratories of Bar Harbor, Maine and the Con A was obtained from Sigma Chemicals of St. Louis, Mo. Each cell culture (consisting of 0.10 ml thymus cells stock solution, 0.05 ml of Con A stock solution and 0.05 ml of drug solution) was performed in quadruplicate and cellular proliferation was measured, after 48 hours of incubation at 37° C., by pulsing each culture with ^3 H-thymidine (0.01 ml of specific activity 1.9 C/mM, obtained from Schwarz-Mann, Inc. of Orangeburg, N.Y.) and then determining the incorporation of ^3 H-thymidine into cellular deoxyribonucleic acid (DNA) by an assessment of radioactivity using a liquid scintillation counter. […] These quadruplicate determinations are employed at eight different concentrations of drugs in the range 0.02 to 50 μg/ml. The highest cpm value obtained is employed in the scoring system.

| SMILES | LSA activity |
| --- | --- |
| Br.c1ccc(CCNc2nc(-c3ccccc3)cs2)cc1 [Example 2, 2-phenethylamino-4-phenyl-thiazole hydrobromide] | +++ (those having an activity (27,000±1,000 cpm) greater than levamisole were scored as +++) |
| Br.Cc1sc(NCCc2ccccc2)nc1-c1ccccc1 [Example 3, 2-phenethylamino-4-phenyl-5-methylthiazole hydrobromide] | +++ (those having an activity (27,000±1,000 cpm) greater than levamisole were scored as +++) |
| c1ccc(-c2csc(NCc3cccs3)n2)cc1 [Example 6, 2-thenylamino-4-phenyl-thiazole hydrobromide] | +++ (those having an activity (27,000±1,000 cpm) greater than levamisole were scored as +++) |
| Fc1ccc(-c2csc(NCc3cccs3)n2)cc1 [Example 7, 2-thenylamino-4(p-fluorophenyl)-thiazole hydrochloride] | +++ (those having an activity (27,000±1,000 cpm) greater than levamisole were scored as +++) |
| Br.Cc1sc(NCc2ccco2)nc1-c1ccccc1 [Example 10, 2-furfurylamino-5-methyl-4-phenyl-thiazole hydrobromide] | +++ (those having an activity (27,000±1,000 cpm) greater than levamisole were scored as +++) |

same assay, conditions: levamisole standard; drug level with maximum activity, Con A-stimulated thymus cells, 48 h at 37° C.

| SMILES | average counts per minute of 3H-thymidine incorporated (LSA activity) |
| --- | --- |
| c1ccc([C@H]2CN3CCSC3=N2)cc1 [levamisole, reference compound] | 22,000±900 cpm |

system: carrageenin-induced rat foot edema; test: carrageenin-induced rat foot edema test; assay type: in vivo, rat (male albino); conditions: 33 mg/kg, p.o., 3 hours after carrageenin, vs non-drug treated control
Procedure: The activity of the compounds of the present invention as anti-inflammatoryagents may be determined by pharmacological tests, for example the standard carrageenin-induced rat foot edema test using the general procedure described by C. A. Winter et. al., see Proceedings of the Society of Experimental Biology in Medicine, Volume 111, page 544 (1962). In this test, anti-inflammatory activity is determined as the percent inhibition of edema formation in the hind paw of male albino rats (generally weighing about 150 to 190 grams) in response to a sub-plantar injection of carrageenin. The carrageenin is injected as a 1% aqueous suspension 1 hour after oral administration of the drug, which is normally given in the form of an aqueous solution or suspension. Edema formation is then assessed 3 hours after the carrageenin injection by comparing the initial volume of the injected paw and the volume after a 3 hour period. The increase in volume 3 hours after carrageenin injection constitutes the individual response. Compounds are considered active if the response between the drug-treated animals (6 rats per group) and the control group, i.e. the animals receiving the vehicle alone, is found to be significant on comparison with the results afforded by standard compounds like acetylsalicyclic acid at 100 mg/kg or phenylbutazone at 33 mg/kg, both by the oral route of administration.
The anti-inflammatory activity of aminothiazoles of this invention was determined using the standard carrageenin-induced rat foot edema test, according to the procedure essentially as described by C. A. Winter etl. al., and reported in the Proceedings of the Society for Experimental Biology and Medicine, Vol. 111, p. 544 (1962). The compounds were administered orally in the form of their previously reported hydrohalide salts at a dose level of 33 mg/kg. The results obtained in this manner are presented in the table below in terms of the percent inhibition of edema formation afforded by each test compound as compared to the non-drug treated control (i.e., aqueous solution with no compound): […]

| SMILES | % Inhibition of edema |
| --- | --- |
| COc1ccc(CCNc2nc(-c3ccc(F)cc3)cs2)cc1 [2-(p-methoxyphenethylamino)-4-(p-fluorophenyl)-thiazole] | 29% |
| Fc1ccc(-c2csc(NCc3cccs3)n2)cc1 [2-thenyl, 4-fluorophenyl, hydrogen, HBr, 2-thenylamino-4-(p-fluorophenyl)-thiazole] | 49% |
| Br.c1ccc(CCNc2nc(-c3ccccc3)cs2)cc1 [Example 2, 2-phenethylamino-4-phenyl-thiazole hydrobromide] | 47% |
